Test system: T1, TaG6PDH2 (TaG6PDH2-2D)
T1 construct: CDS in pET15b-sumo, E. coli BL21 (DE3), 6xHis and SUMO tags, about 75 kDa on gel; His-Trap FF purified fusion
Assay: G6PDH activity, double-reciprocal plot ([…]/V vs. […]/[G6P])
Format: biochemical, Triticum aestivum
Settings: purified His-SUMO fusion; assay conditions only by reference; read-out: KmG6P

Km: 1980 µM
Structure (SMILES): O=P(O)(O)OC[C@H]1OC(O)[C@H](O)[C@@H](O)[C@@H]1O (stereo partly shown) [G6P, glucose-6-phosphate]
